Several values for one entry are separate records, joined by “and”; a condition that tells them apart may be missing. Equal values may be shown once. Read-outs that look alike come from different tables or passages of the source.
Columns and labels:
[1] = system: HeLa cervical cancer cells; settings: human
[2] = system: HeLa cervical cancer cells; experiment: cells; settings: Homo sapiens, 24 h, read-out: IC50 dose for cell death
[3] = system: IL-8 secretion from cystic fibrosis lung epithelial IB3-1 cells
[4] = octanol/water (20 mM TRIS-HCl, pH 7.4); cited from earlier work
[5] = mobile phase: methanol/water 30:70; cited from earlier work
[6] = eluent acetonitrile/water 45:55; cited from earlier work
[7] = system: guinea-pig heart Na^+-K^+-ATPase; settings: cited from earlier work
[8] = system: human vascular endothelial cells (HUVEC); settings: in vitro, read-out: 50% kill concentration; cited from earlier work
[9] = for 70 kg man; cited from earlier work
[10] = Homo sapiens, IB3-1, 48 h, read-out: IC50 nmol/L in cells
[11] = Homo sapiens, IB3-1, 48 h, read-out: IC50 (K50) for spontaneous IL-8 secretion
[12] = read-out: IC50 nmol/L in cells, 50% suppression of spontaneous IL-8 secretion, IB3-1 cells, 48 hours

| Structure (SMILES) | IC50 [3, 10] | P (partition coefficient in octanol/water system) [4] | RM values (lipophilicity, reversed-phase thin layer chromatography) [5] | K retentions for reversed-phase high pressure liquid chromatography [6] | ID50 [7] | other results |
| --- | --- | --- | --- | --- | --- | --- |
| CO[C@H]1C[C@H](O[C@H]2CC[C@@]3(C)[C@H](CC[C@@H]4[C@@H]3CC[C@]3(C)[C@@H](C5=CC(=O)OC5)[C@@H](OC(C)=O)C[C@]43O)C2)O[C@@H](C)[C@@H]1O [oleandrin] | 2 nmol/L |  |  |  |  | Threshold concentration for an increase in cell death [1]: ca. 30 nM; IC50 [2]: ~100 nM; IC50 [3, 11]: ~2 nmol/L |
| CC(=O)O[C@H]1CC[C@@]2(C)[C@H](CC[C@@H]3[C@@H]2C[C@@H](OC(C)=O)[C@]2(C)[C@@H](C4=CC(=O)OC4)CC[C@]32O)C1 (single isomer, unassigned; diac) [digoxigenin3,12 diAC, digoxigenin 3,12 diAC] |  |  |  |  |  | Activity on IL-8 secretion ([3]; at a concentration of 1000 nM (1 micromolar)): entirely inactive; IC50 [3, 12]: > 1000 nmol/L |
| C[C@]12CC[C@H](O)C[C@H]1CC[C@@H]1[C@@H]2C[C@@H](O)[C@]2(C)[C@@H](C3=CC(=O)OC3)CC[C@]12O [digoxigenin] | 34 nmol/L | 13.5 ± 2.3 |  |  |  |  |
| C[C@]12CC[C@H](O)C[C@H]1CC[C@@H]1[C@@H]2CC[C@]2(C)[C@@H](C3=CC(=O)OC3)CC[C@]12O [digitoxigenin] | 74 nmol/L | 270.0 ± 94.1 | 1.03 | 1.81 | 1.63 ± 0.06 ×10^−4 mol l^−1 |  |
| CC(=O)O[C@H]1CC[C@]2(C=O)[C@H]3CC[C@]4(C)[C@@H](C5=CC(=O)OC5)CC[C@]4(O)[C@@H]3CC[C@]2(O)C1 [acetylstrophanthdin, acetyl-strophanthidin] |  |  |  |  |  | IC50 [3, 12]: 117 nmol/L |
| C[C@H]1O[C@@H](O[C@H]2[C@@H](O)C[C@H](O[C@H]3[C@@H](O)C[C@H](O[C@H]4CC[C@@]5(C)[C@H](CC[C@@H]6[C@@H]5C[C@@H](O)[C@]5(C)[C@@H](C7=CC(=O)OC7)CC[C@]65O)C4)O[C@@H]3C)O[C@@H]2C)C[C@H](O)[C@@H]1O [digoxin] | 27 nmol/L |  | 0.25 | 0.50 | 0.90 ± 0.07 ×10^−4 mol l^−1 | IC50 [8]: ~210 nM; Human toxicity limit [9]: 1900 nmol; Human toxicity limit, Nmol/L = nM [9]: 27.1 nM; IC50 [3, 11]: ~27 nmol/L |
| C[C@@H]1O[C@@H](O[C@H]2C[C@@H](O)[C@]3(CO)[C@H]4[C@H](O)C[C@]5(C)[C@@H](C6=CC(=O)OC6)CC[C@]5(O)[C@@H]4CC[C@]3(O)C2)[C@H](O)[C@H](O)[C@H]1O [ouabain] | 8 nmol/L | 0.02 and 0.02 ± 0.00 | −0.73 | 0.14 | 2.28 ± 0.10 ×10^−4 mol l^−1 | Threshold concentration for an increase in cell death [1]: ca. 50 nM; IC50 [8]: 240 nM and 357 nM and ~240 nM and ~357 nM; IC50 [2]: ~200 nM; Human toxicity limit [9]: 1683 nmol |
| C[C@H]1O[C@@H](O[C@H]2CC[C@@]3(C)[C@H](CC[C@@H]4[C@@H]3CC[C@]3(C)[C@@H](C5=CC(=O)OC5)[C@@H](O)C[C@]43O)C2)C[C@H](O)[C@@H]1O [Gitoxigenin-mono-digitoxoside] |  | 60.1 ± 10.0 | 0.46 | 0.83 | 2.56 ± 0.21 ×10^−4 mol l^−1 |  |

Source: patent publication US20140187505A1, “Cardiac Glycosides to Treat Cystic Fibrosis and Other IL-8 Dependent Disorders” (priority 2002, published 2014)
